Results published in ChEMBL document CHEMBL1127727, “Synthesis and structure-activity relationships of novel retinoid X receptor-selective retinoids” (J Med Chem, 1994).

Key:
[1] = biological target: T1, Retinoic acid receptor RXR-beta (Mus musculus, UniProt P28704); assay: Effective concentration against retinoid receptor isoform (RXR beta) expressed in CV-1 cells; format: cell-based
T1 sequence (P28704 whole entry): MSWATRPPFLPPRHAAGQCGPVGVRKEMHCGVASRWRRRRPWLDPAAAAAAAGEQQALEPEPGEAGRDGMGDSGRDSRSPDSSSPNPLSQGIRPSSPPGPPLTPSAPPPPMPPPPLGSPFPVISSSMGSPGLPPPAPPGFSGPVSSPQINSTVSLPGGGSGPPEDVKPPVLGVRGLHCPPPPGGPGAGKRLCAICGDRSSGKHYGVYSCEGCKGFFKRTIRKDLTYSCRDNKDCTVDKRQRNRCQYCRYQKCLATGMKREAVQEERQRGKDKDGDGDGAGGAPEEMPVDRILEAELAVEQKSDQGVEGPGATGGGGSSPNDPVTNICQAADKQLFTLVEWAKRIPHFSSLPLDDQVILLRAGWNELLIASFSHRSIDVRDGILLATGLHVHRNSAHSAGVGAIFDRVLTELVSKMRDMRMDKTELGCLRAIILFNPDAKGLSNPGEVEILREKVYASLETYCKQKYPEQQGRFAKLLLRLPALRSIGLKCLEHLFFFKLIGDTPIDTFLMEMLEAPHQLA

[2] = biological target: T1, Retinoic acid receptor RXR-beta; assay: Inhibition of [3H]9-cis-RA binding to baculovirus expressed retinoid receptor RXR beta
[3] = biological target: T2, Retinoic acid receptor beta (Homo sapiens, UniProt P10826); assay: Effective concentration against retinoid receptor isoform (RAR beta) expressed in CV-1 cells; format: cell-based
T2 sequence (P10826 whole entry): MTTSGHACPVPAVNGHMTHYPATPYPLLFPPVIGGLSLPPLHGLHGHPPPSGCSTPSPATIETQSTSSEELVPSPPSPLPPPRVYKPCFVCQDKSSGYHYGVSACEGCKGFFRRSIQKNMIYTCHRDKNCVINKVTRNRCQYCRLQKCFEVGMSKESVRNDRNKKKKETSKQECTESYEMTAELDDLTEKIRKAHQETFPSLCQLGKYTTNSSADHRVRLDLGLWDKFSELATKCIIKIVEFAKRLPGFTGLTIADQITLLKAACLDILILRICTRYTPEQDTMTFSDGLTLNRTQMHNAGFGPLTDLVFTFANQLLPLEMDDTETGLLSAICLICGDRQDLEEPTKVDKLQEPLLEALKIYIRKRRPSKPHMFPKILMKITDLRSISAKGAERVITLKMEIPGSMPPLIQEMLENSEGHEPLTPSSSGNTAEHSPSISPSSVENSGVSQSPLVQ

[4] = biological target: T2, Retinoic acid receptor beta; assay: Inhibition of [3H]ATRA binding to baculovirus expressed retinoid receptor RAR beta
[5] = biological target: T3, Retinoic acid receptor gamma (Homo sapiens, UniProt P13631); assay: Effective concentration against retinoid receptor isoform (RAR gamma) expressed in CV-1 cells; format: cell-based
T3 sequence (P13631 whole entry): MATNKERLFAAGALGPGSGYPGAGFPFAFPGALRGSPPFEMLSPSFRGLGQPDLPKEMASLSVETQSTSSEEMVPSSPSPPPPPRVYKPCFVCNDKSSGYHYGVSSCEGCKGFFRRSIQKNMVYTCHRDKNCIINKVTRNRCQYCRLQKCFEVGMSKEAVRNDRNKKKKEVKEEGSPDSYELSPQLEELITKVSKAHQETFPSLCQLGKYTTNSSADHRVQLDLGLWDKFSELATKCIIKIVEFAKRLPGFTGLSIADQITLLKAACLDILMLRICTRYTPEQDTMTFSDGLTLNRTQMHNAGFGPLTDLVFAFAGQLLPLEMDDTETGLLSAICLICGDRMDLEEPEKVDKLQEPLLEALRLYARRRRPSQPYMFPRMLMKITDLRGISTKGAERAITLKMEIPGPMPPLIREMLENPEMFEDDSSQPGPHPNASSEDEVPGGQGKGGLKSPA

[6] = biological target: T4, Retinoic acid receptor alpha (Homo sapiens, UniProt P10276); assay: Effective concentration against retinoid receptor isoform (RAR alpha) expressed in CV-1 cells; format: cell-based
T4 sequence (P10276 whole entry): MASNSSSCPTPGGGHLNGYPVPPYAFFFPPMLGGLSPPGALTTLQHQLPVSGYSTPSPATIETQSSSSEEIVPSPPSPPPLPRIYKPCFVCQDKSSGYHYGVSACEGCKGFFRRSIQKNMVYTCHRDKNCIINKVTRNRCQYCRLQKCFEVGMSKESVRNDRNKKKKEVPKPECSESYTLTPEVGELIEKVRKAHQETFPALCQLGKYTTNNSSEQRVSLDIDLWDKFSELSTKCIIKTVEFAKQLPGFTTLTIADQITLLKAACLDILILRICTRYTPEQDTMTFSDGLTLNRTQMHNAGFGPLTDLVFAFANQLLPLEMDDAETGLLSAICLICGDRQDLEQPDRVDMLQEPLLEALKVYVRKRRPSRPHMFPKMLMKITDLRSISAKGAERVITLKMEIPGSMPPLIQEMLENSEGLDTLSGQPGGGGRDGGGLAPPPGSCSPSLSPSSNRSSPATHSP

[7] = biological target: T4, Retinoic acid receptor alpha; assay: Inhibition of [3H]-ATRA binding to baculovirus expressed retinoid receptor RAR alpha
[8] = biological target: T5, Retinoic acid receptor RXR-gamma (Mus musculus, UniProt P28705); assay: Effective concentration against retinoid receptor isoform (RXR gamma) expressed in CV-1 cells; format: cell-based
T5 sequence (P28705 whole entry): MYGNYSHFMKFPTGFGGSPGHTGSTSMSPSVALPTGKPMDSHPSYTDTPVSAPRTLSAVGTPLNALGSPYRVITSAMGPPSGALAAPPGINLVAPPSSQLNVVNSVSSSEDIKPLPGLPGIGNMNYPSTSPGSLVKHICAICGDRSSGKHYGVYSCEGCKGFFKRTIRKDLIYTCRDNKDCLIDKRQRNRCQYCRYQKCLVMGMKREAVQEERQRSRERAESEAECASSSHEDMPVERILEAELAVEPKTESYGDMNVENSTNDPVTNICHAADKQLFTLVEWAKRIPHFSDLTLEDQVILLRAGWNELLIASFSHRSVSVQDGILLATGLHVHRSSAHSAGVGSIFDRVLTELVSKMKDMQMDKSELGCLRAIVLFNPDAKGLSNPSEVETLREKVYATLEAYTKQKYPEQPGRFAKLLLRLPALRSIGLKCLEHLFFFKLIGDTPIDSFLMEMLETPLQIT

[9] = biological target: T5, Retinoic acid receptor RXR-gamma; assay: Inhibition of [3H]9-cis-RA binding to baculovirus expressed retinoid receptor RXR gamma
[10] = biological target: T3, Retinoic acid receptor gamma; assay: Tested for binding affinity against [3H]-ATRA binding to retinoid receptor isoform (RAR gamma) expressed in baculovirus
[11] = biological target: T6, Retinoic acid receptor RXR-alpha (Homo sapiens, UniProt P19793)
T6 sequence (P19793 whole entry): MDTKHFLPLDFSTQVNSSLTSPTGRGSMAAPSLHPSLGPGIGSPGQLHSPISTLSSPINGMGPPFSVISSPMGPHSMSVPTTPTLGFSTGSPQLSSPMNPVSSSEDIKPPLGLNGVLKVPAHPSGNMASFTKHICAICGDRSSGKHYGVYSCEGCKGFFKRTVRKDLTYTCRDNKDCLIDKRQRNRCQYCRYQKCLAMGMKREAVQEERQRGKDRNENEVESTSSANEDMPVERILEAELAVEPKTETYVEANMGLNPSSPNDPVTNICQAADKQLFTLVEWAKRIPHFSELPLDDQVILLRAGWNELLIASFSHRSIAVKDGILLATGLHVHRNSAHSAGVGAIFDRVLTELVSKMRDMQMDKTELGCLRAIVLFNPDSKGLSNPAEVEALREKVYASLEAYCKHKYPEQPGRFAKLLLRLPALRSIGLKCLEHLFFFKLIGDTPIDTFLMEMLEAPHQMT
Description: Inhibition of [3H]9-cis-RA binding to baculovirus expressed retinoid receptor RXR alpha

[12] = biological target: T6, Retinoic acid receptor RXR-alpha; remark: listed apart in the source
Description: Effective concentration against retinoid receptor isoform (RXR alpha) expressed in CV-1 cells

| Compound | EC50 [1] [nM] | Kd [2] [nM] | EC50 [3] [nM] | Kd [4] [nM] | EC50 [5] [nM] | EC50 [6] [nM] | Kd [7] [nM] | EC50 [8] [nM] | Kd [9] [nM] | Kd [10] [nM] | Kd [11] [nM] | EC50 [12] [nM] |
| --- | --- | --- | --- | --- | --- | --- | --- | --- | --- | --- | --- | --- |
| CCCc1cc2c(cc1C(=O)c1ccc(C(=O)O)cc1)C(C)(C)CCC2(C)C | > 10000 | 371 | > 10000 | > 1000 | > 10000 | > 10000 | > 1000 | > 10000 | 704 | > 1000 | 269 | > 10000 |
| CC1(C)CCC(C)(C)c2cc(C(=O)c3ccc(C(=O)O)cc3)c(Cl)cc21 | 262 | 110 | > 10000 | > 1000 | > 10000 | > 10000 | > 1000 | 225 | 135 | > 1000 | 130 | 294 |
| CC1(C)CCC(C)(C)c2cc(C(=O)c3ccc(C(=O)O)cc3)c(Br)cc21 | 120 | 150 | > 10000 | > 1000 | > 10000 | > 10000 | > 1000 | 261 | 150 | > 1000 | 105 | 332 |
| C=C(c1ccc(C(=O)O)cc1)c1cc2c(cc1O)C(C)(C)CCC2(C)C | 202 | 822 | 2240 | > 1000 | > 10000 | > 10000 | > 1000 | 558 | 812 | > 1000 | 487 | 455 |
| COc1cc2c(cc1C(=O)c1ccc(C(=O)O)cc1)C(C)(C)CCC2(C)C | 2200 | > 1000 | > 10000 | > 1000 | > 10000 | > 10000 | > 1000 | 2190 | > 1000 | > 1000 | > 1000 | 2020 |
| C=C(c1ccc(C(=O)O)cc1)c1cc2c(cc1C(C)C)C(C)(C)CCC2(C)C | 289 | 75 | > 10000 | > 1000 | > 10000 | > 10000 | > 1000 | 227 | 142 | > 1000 | 55 | 207 |

The remaining lines, values ahead:

| EC50 [1] [nM] | Kd [2] [nM] | EC50 [3] [nM] | Kd [4] [nM] | EC50 [5] [nM] | EC50 [6] [nM] | Kd [7] [nM] | EC50 [8] [nM] | Kd [9] [nM] | Kd [10] [nM] | Kd [11] [nM] | EC50 [12] [nM] | Compound |
| --- | --- | --- | --- | --- | --- | --- | --- | --- | --- | --- | --- | --- |
| 810 | 232 | > 10000 | > 1000 | > 10000 | > 10000 | > 1000 | 384 | 424 | > 1000 | 195 | 514 | CCc1cc2c(cc1C(=O)c1ccc(C(=O)O)cc1)C(C)(C)CCC2(C)C |
| 1980 | 902 | 395 | > 1000 | 1020 | 2860 | > 1000 | 2250 | 911 | > 1000 | 706 | 1820 | CC1(C)CCC(C)(C)c2cc(C(=O)c3ccc(C(=O)O)cc3)c(F)cc21 |
| 59 | 34 | > 10000 | > 1000 | > 10000 | > 10000 | > 1000 | 43 | 35 | > 1000 | 28 | 51 | C=C(c1ccc(C(=O)O)cc1)c1cc2c(cc1Br)C(C)(C)CCC2(C)C |
| 145 | 44 | > 10000 | > 1000 | > 10000 | > 10000 | > 1000 | 136 | 59 | > 1000 | 31 | 115 | C=C(c1ccc(C(=O)O)cc1)c1cc2c(cc1CC)C(C)(C)CCC2(C)C |
| 33 | 44 | 436 | > 1000 | 1450 | > 10000 | > 1000 | 36 | 44 | > 1000 | 27 | 52 | C=C(c1ccc(C(=O)O)cc1)c1cc2c(cc1Cl)C(C)(C)CCC2(C)C |
| 486 | 199 | 304 | 909 | 266 | > 10000 | 944 | 404 | 290 | 887 | 150 | 409 | C=C(c1ccc(C(=O)O)cc1)c1ccc2c(c1)C(C)(C)CCC2(C)C |
| > 10000 | 236 | > 10000 | > 1000 | > 10000 | > 10000 | > 1000 | > 10000 | 332 | > 1000 | 137 | > 10000 | C=C(c1ccc(C(=O)O)cc1)c1cc2c(cc1CCC)C(C)(C)CCC2(C)C |
| 313 | 155 | > 10000 | > 1000 | > 10000 | > 10000 | > 1000 | 357 | 309 | > 1000 | 113 | 381 | CC(C)c1cc2c(cc1C(=O)c1ccc(C(=O)O)cc1)C(C)(C)CCC2(C)C |
